Here are results for 18 molecules from patent publication US20190085024A1, “Alpha-Ketoamide Inhibitors Of Cysteine Proteases” (Phelix Therapeutics, priority 2017, published 2019).

Test [1] addresses Cathepsin L (Homo sapiens, UniProt P07711). Nature of the test: Cathepsin L enzyme assay. The format is biochemical. The conditions noted are these: Ki by Morrison equation; pH 5.5, substrate Z-Phe-Arg-Amc; read-out: Cat L. The source says: Two wells contained DMSO only for controls.
Velocity was converted to μM/sec.

The target of test [2] is Cat S (Homo sapiens, UniProt P25774). Nature of the test: Cat S inhibition. The format is biochemical.
Sequence of Cat S (P25774 115-331): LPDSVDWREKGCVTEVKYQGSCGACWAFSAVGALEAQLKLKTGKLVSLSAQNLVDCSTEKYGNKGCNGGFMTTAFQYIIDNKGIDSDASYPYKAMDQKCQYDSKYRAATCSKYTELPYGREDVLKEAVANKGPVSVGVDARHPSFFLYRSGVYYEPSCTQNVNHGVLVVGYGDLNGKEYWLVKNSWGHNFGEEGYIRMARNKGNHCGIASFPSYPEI
Test [3] concerns the target Calpain. Put plainly: Calpain enzyme assay. The conditions noted are these: Ki by Morrison equation; pH 7.5, 5 mM CaCl2. The test is classed as biochemical.
The target in test [4] is Cathepsin B (Homo sapiens, UniProt P07858). Nature of the test: Cathepsin B enzyme assay. The note with it: Cat B (μM), Ki by Morrison equation; pH 6.0, substrate Z-Phe-Arg-Amc.
The test system of test [5] is MERS WT. Put plainly: microbe, parasite or virus in culture. The format is cell-based. The conditions noted are these: Middle East respiratory syndrome-related coronavirus, read-out: MERS WT (μM).

*1 amine or outer side, *2 acyl side, *3 side chain or, on linkers, in order; H or OH if unused. Where a SMILES comes first, the peptide text is derived from it. [ ]: non-standard residue; d: D form. The star is where a group is joined. ξ: configuration not given here. ξβ3hPhe(2-oxo) = O=C(C(=O)[*:2])C(Cc1ccccc1)N[*:1]; ξ3Amino2oxobutanoyl = CC(N[*:1])C(=O)C(=O)[*:2]; 2Nal = N[CH](Cc1ccc2ccccc2c1)C(=O)O; Cbz = O=C(OCc1ccccc1)* Bounds are passed on as bounds.

Sequence of Cathepsin L (P07711 114-333, species assumed): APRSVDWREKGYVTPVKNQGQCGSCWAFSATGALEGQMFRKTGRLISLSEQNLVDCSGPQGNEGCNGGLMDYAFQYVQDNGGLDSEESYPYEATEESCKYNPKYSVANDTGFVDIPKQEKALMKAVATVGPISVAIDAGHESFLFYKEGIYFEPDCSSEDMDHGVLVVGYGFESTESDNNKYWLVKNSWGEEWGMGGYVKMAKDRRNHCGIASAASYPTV

In the case of `CC(C)CC(=O)NC(Cc1ccccc1)C(=O)NC(C)C(=O)C(=O)NC(Cc1ccccc1)C(=O)NC(C)(C)C(N)=O` (stereo not drawn) [PHELIX235, N-(1-((1-amino-2-methyl-1-oxopropan-2-yl)amino)-1-oxo-3-phenylpropan-2-yl)-3-(2-(3-methylbutanamido)-3-phenylpropanamido)-2-oxobutanamide], the Ki is 236 nM in test [1], 28.9 nM in test [2], greater than 10000 nM in test [3] and 0.644 µM in test [4].

Take `CCCCC(=O)NC(Cc1ccccc1)C(=O)NC(C)C(=O)C(=O)NC(Cc1ccccc1)C(=O)NC(C)(C)C(N)=O` (stereo not drawn) [PHELIX236, N-(1-((4-((1-((1-amino-2-methyl-1-oxopropan-2-yl)amino)-1-oxo-3-phenylpropan-2-yl)amino)-3,4-dioxobutan-2-yl)amino)-1-oxo-3-phenylpropan-2-yl)pentanamide]: the Ki in test [1] was 1720 nM; in test [2] it was 260 nM; in test [3], greater than 10000 nM; in test [4], greater than 10 µM.

Regarding `CC(C)C[C@H](NC(=O)C(c1ccccc1)c1ccccc1)C(=O)NC(C)C(=O)C(=O)NCC(=O)N[C@@H](Cc1ccc2ccccc2c1)C(N)=O` (stereo partly drawn) [PHELIX251, N-(4-((2-((1-amino-3-(naphthalen-2-yl)-1-oxopropan-2-yl)amino)-2-oxoethyl)amino)-3,4-dioxobutan-2-yl)-2-(2,2-diphenylacetamido)-4-methylpentanamide], the Ki in test [1] came out at 1.4 nM; in test [3], 25 nM; in test [4], 0.106 µM. For the same molecule, in test [5], the IC50 was greater than 30 µM.

Turning to `CC(C)CC(NC(=O)OCc1ccccc1)C(=O)NC(Cc1ccccc1)C(=O)C(=O)NC(C)C(=O)NC(CCC(=O)O)C(=O)NC(CCCNC(=N)N)C(N)=O` (stereo not drawn) [PHELIX252, 15-((1-amino-5-guanidino-1-oxopentan-2-yl)carbamoyl)-8-benzyl-5-isobutyl-12-methyl-3,6,9,10,13-pentaoxo-1-phenyl-2-oxa-4,7,11,14-tetraazaoctadecan-18-oic acid] (Cbz-L[ξβ3hPhe(2-oxo)]AER-NH2; configuration not given here), the values for the Ki in test [1], in test [3] and in test [4] were 5.03 nM, 17 nM and greater than 10 µM, respectively. The IC50 in test [5] is greater than 30 µM.

`CC(C)CC(NC(=O)Cc1ccc(-c2ccccc2)cc1)C(=O)NC(C)C(=O)C(=O)NCC(=O)NC(Cc1ccc2ccccc2c1)C(N)=O` (stereo not drawn) [PHELIX253, 2-(2-([1,1′-biphenyl]-4-yl)acetamido)-N-(4-((2-((1-amino-3-(naphthalen-2-yl)-1-oxopropan-2-yl)amino)-2-oxoethyl)amino)-3,4-dioxobutan-2-yl)-4-methylpentanamide]: the Ki in test [1] came out at 21.5 nM; in test [3], 21.4 nM; in test [4], 1.17 µM. The IC50 in test [5] was greater than 30 µM.

Take `CC(C)CC(NC(=O)OCc1ccccc1)C(=O)NC(Cc1ccccc1)C(=O)C(=O)NCC(=O)NC(Cc1ccc2ccccc2c1)C(N)=O` (stereo not drawn) [PHELIX256, benzyl (1-((4-((2-((1-amino-3-(naphthalen-2-yl)-1-oxopropan-2-yl)amino)-2-oxoethyl)amino)-3,4-dioxo-1-phenylbutan-2-yl)amino)-4-methyl-1-oxopentan-2-yl)carbamate]: the values for the Ki in test [1], in test [3] and in test [4] were 1.47 nM, 12.2 nM and 0.24 µM, respectively. Further, in test [5], the IC50 was found to be 4.97 µM.

For the molecule `CC(C)CC(NC(=O)C(Cc1ccccc1)NC(=O)OCc1ccccc1)C(=O)NC(C)C(=O)C(=O)NCC(=O)NC(Cc1ccc2ccccc2c1)C(N)=O` (stereo not drawn) [PHELIX258, benzyl (1-amino-12-isobutyl-9-methyl-2-(naphthalen-2-ylmethyl)-1,4,7,8,11,14-hexaoxo-16-phenyl-3,6,10,13-tetraazahexadecan-15-yl)carbamate] (Cbz-FL[ξ3Amino2oxobutanoyl]G[2Nal]-NH2; configuration not given here), the values for the Ki in test [1], in test [3] and in test [4] were 6.14 nM, 1.9 nM and 0.42 µM, respectively.

In the case of `CC(NC(=O)C(Cc1ccccc1)NC(=O)Cc1ccccc1)C(=O)C(=O)NC(CC1CCCCC1)C(=O)NC(Cc1ccc(-c2ccccc2)cc1)C(N)=O` (stereo not drawn) [PHELIX259, N-(1-((3-([1,1′-biphenyl]-4-yl)-1-amino-1-oxopropan-2-yl)amino)-3-cyclohexyl-1-oxopropan-2-yl)-2-oxo-3-(3-phenyl-2-(2-phenylacetamido)propanamido)butanamide], the Ki in test [1] is 1.93 nM; in test [3], greater than 10000 nM; in test [4], greater than 10 µM. Besides, the IC50 in test [5] came out at 1.1 µM.

`CC(NC(=O)C(Cc1ccccc1)NC(=O)Cc1ccccc1)C(=O)C(=O)NC(CC1CC1)C(=O)NC(Cc1ccc(-c2ccccc2)cc1)C(N)=O` (stereo not drawn) [PHELIX260, N-(1-((3-([1,1′-biphenyl]-4-yl)-1-amino-1-oxopropan-2-yl)amino)-3-cyclopropyl-1-oxopropan-2-yl)-2-oxo-3-(3-phenyl-2-(2-phenylacetamido)propanamido)butanamide]: the Ki is 0.27 nM in test [1], greater than 10000 nM in test [3] and 0.0178 µM in test [4]. Moreover, the IC50 in test [5] is 1.81 µM.

As for `CC(NC(=O)C(Cc1ccccc1)NC(=O)Cc1ccccc1)C(=O)C(=O)NC(Cc1ccc(C(F)(F)F)cc1)C(=O)NC(Cc1ccc(-c2ccccc2)cc1)C(N)=O` (stereo not drawn) [PHELIX261, N-(1-((3-([1,1′-biphenyl]-4-yl)-1-amino-1-oxopropan-2-yl)amino)-1-oxo-3-(4-(trifluoromethyl)phenyl)propan-2-yl)-2-oxo-3-(3-phenyl-2-(2-phenylacetamido)propanamido)butanamide], the Ki in test [1] was 2.48 nM; in test [3], greater than 10000 nM; in test [4], greater than 10 µM. For the same molecule, in test [5], the IC50 stood at 2.56 µM.

With `CC(NC(=O)C(Cc1ccccc1)NC(=O)Cc1ccccc1)C(=O)C(=O)NC(Cc1ccc(F)cc1)C(=O)NC(Cc1ccc(-c2ccccc2)cc1)C(N)=O` (stereo not drawn) [PHELIX262], the Ki in test [1] was 0.04 nM; in test [3] it was greater than 10000 nM; in test [4] it was 0.435 µM.

On to `CC(NC(=O)C(Cc1ccccc1)NC(=O)Cc1ccccc1)C(=O)C(=O)NC(Cc1ccccc1F)C(=O)NC(Cc1ccc(-c2ccccc2)cc1)C(N)=O` (stereo not drawn) [PHELIX263, N-(1-((3-([1,1′-biphenyl]-4-yl)-1-amino-1-oxopropan-2-yl)amino)-3-(2-fluorophenyl)-1-oxopropan-2-yl)-2-oxo-3-(3-phenyl-2-(2-phenylacetamido)propanamido)butanamide], for which the Ki was 0.06 nM in test [1], greater than 10000 nM in test [3] and 0.6 µM in test [4]. Further, in test [5], the IC50 is 0.99 µM.

`CC(NC(=O)C(Cc1ccccc1)NC(=O)Cc1ccccc1)C(=O)C(=O)NC(Cc1cccc(C(F)(F)F)c1)C(=O)NC(Cc1ccc(-c2ccccc2)cc1)C(N)=O` (stereo not drawn) [PHELIX264, N-(1-((3-([1,1′-biphenyl]-4-yl)-1-amino-1-oxopropan-2-yl)amino)-1-oxo-3-(3-(trifluoromethyl)phenyl)propan-2-yl)-2-oxo-3-(3-phenyl-2-(2-phenylacetmido)propanamido)butanamide]: the Ki in test [1] was 1.91 nM; in test [3], greater than 10000 nM; in test [4] it was greater than 10 µM. In addition, the IC50 in test [5] is 2.68 µM.

For `CC(NC(=O)C(Cc1ccccc1)NC(=O)Cc1ccccc1)C(=O)C(=O)NC(Cc1ccccc1C(F)(F)F)C(=O)NC(Cc1ccc(-c2ccccc2)cc1)C(N)=O` (stereo not drawn) [PHELIX265, N-(1-((3-([1,1′-biphenyl]-4-yl)-1-amino-1-oxopropan-2-yl)amino)-1-oxo-3-(2-(trifluoromethyl)phenyl)propan-2-yl)-2-oxo-3-(3-phenyl-2-(2-phenylacetamido)propanamido)butanamide], the figures for the Ki in test [1], in test [3] and in test [4] were 302 nM, greater than 10000 nM and greater than 10 µM, respectively. For the same molecule, the IC50 in test [5] amounted to 2.2 µM.

For the molecule `CC(NC(=O)C(Cc1ccccc1)NC(=O)Cc1ccccc1)C(=O)C(=O)NC(Cc1cccc(F)c1)C(=O)NC(Cc1ccc(-c2ccccc2)cc1)C(N)=O` (stereo not drawn) [PHELIX266, N-(1-((3-([1,1′-biphenyl]-4-yl)-1-amino-1-oxopropan-2-yl)amino)-3-(3-fluorophenyl)-1-oxopropan-2-yl)-2-oxo-3-(3-phenyl-2-(2-phenylacetamido)propanamido)butanamide], the Ki in test [1] was 0.14 nM; in test [3], greater than 10000 nM; in test [4], greater than 10 µM. In addition, the IC50 in test [5] amounted to 0.78 µM.

Regarding `CCC(C)C(NC(=O)C(CC(C)C)NC(=O)C(Cc1ccccc1)NC(=O)OCc1ccccc1)C(=O)C(=O)NC(CCCNC(=N)N)C(N)=O` (stereo not drawn) [PHELIX268, benzyl (1-amino-10-(sec-butyl)-6-carbamoyl-1-imino-13-isobutyl-8,9,12,15-tetraoxo-17-phenyl-2,7,11,14-tetraazaheptadecan-16-yl)carbamate], the figures for the Ki in test [1], in test [3] and in test [4] were 0.95 nM, 10.6 nM and 0.171 µM, respectively. Also, the IC50 in test [5] is greater than 30 µM.

Turning to `C=CCOC(=O)NCCCCC(NC(=O)C(=O)C(NC(=O)C(CC(C)C)NC(=O)C(Cc1ccccc1)NC(=O)OCc1ccccc1)C(C)CC)C(N)=O` (stereo not drawn) [PHELIX269, benzyl (15-(sec-butyl)-11-carbamoyl-18-isobutyl-5,13,14,17,20-pentaoxo-22-phenyl-4-oxa-6,12,16,19-tetraazadocos-1-en-21-yl)carbamate], the Ki in test [1] was determined as 4.13 nM; in test [3] it was 4.34 nM; in test [4] it was 0.763 µM. The IC50 in test [5] is greater than 30 µM.

With `CCC(C)C(NC(=O)C(CC(C)C)NC(=O)OCc1ccccc1)C(=O)C(=O)NC(CCCNC(N)=O)C(=O)NC(Cc1ccc2ccccc2c1)C(N)=O` (stereo not drawn) [PHELIX315, benzyl (1-((1-((1-((1-amino-3-(naphthalen-2-yl)-1-oxopropan-2-yl)amino)-1-oxo-5-ureidopentan-2-yl)amino)-4-methyl-1,2-dioxohexan-3-yl)amino)-4-methyl-1-oxopentan-2-yl)carbamate], the Ki in test [1] was 0.47 nM; in test [3] it was 1.48 nM; in test [4] it was greater than 10 µM.
